Test results reported in patent publication US20160271263A1 (Novo Nordisk A/S, priority 2010, published 2016).
pEC50: −log10 of the molar value. Like-named read-outs stand apart in the source and are kept apart here. Numbered stars: 1 amine (or outer) side, 2 acyl side, 3 side chain; on linkers, the order of the positions; unused ones are H or OH. Side chains are listed from the residue outwards. Peptide text beside a SMILES is read from it. * marks the point of attachment. C18 diacid = O=C(O)CCCCCCCCCCCCCCCCC(=O)*; γGlu = O=C(O)[C@H](CCC(=O)[*:2])N[*:1]; AEEA = NCCOCCOCC(=O)O

What was measured:
glucagon receptor [1] = target: T1, glucagon receptor (Homo sapiens, UniProt P47871); experiment: cell-based
DPP-IV = DPP-IV (Homo sapiens, UniProt P27487); experiment: in vitro
Protocol: 10 μM of peptide was incubated with DPP-IV (2 μg/ml) in duplicate at 37° C. in a HEPES buffer to which 0.005% Tween20 were added. […] The samples were analysed by LC-MS for parent peptide. Data were plotted according to 1st kinetics and the stability was reported as half-lives.

in vivo = conditions: male, Sprague Dawley, rat, plasma
Protocol: Fifteen male rats (Sprague Dawley, 400 g, Taconic Europe) were divided into three groups of five rats. The rats were dosed at t=0 with either 15 nmol/kg IV, 30 nmol/kg SC, or 100 nmol/kg, respectively. The IV dosing was performed via the tail vein while the rats were shortly under isoflurane anaesthesia. […] Plasma samples were stored on freeze until analysed by LCMS.

glucagon receptor [2] = target: T1, glucagon receptor; conditions: read-out: Assay (I) Glucagon [EC50]; Table 1; HEK-293 cells, end point data after 6 minutes
[3] = ThT fibrillation assay for physical stability (lag time and recovery); assay type: physicochemical; conditions: Table 2
Source text: This has traditionally been measured by visual inspection of the sample. However, that kind of measurement is very subjective and depending on the observer. Therefore, the application of a small molecule indicator probe is much more advantageous. […] Enzymol.
Here, F is the ThT fluorescence at the time t. […] The two important parameters describing fibril formation are the lag-time calculated by t0−2τ and the apparent rate constant kapp 1/τ.
Few of those intermediates nucleate to form a template onto which further intermediates may assembly and the fibrillation proceeds. The lag-time corresponds to the interval in which the critical mass of nucleus is built up and the apparent rate constant is the rate with which the fibril itself is formed.
Samples were prepared freshly before each assay. […] The pH of the sample was adjusted to the desired value using appropriate amounts of concentrated NaOH and HCl. Thioflavin T was added to the samples from a stock solution in H2O to a final concentration of 1 μM.
The plate was sealed with Scotch Pad (Qiagen).
Each run was initiated by incubating the plate at the assay temperature for 10 min. The plate was measured every 20 minutes for a desired period of time. Between each measurement, the plate was shaken and heated as described.
The supernatant was filtered through a 0.22 μm filter and an aliquot was transferred to a HPLC vial. […]

T1 sequence (P47871 26-477): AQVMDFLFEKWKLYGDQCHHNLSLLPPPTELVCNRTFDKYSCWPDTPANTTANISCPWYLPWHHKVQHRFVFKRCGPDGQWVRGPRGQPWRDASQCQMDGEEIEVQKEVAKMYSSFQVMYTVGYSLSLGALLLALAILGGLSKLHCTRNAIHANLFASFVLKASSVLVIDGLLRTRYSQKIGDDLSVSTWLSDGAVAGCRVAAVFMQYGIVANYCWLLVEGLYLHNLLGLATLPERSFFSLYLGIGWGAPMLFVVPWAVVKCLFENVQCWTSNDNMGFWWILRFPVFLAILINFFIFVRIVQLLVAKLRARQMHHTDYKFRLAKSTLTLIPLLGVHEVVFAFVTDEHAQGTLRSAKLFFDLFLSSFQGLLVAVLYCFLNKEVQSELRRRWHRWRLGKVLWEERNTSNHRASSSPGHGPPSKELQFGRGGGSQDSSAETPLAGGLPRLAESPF
Sequence of DPP-IV (P27487 whole entry, species assumed): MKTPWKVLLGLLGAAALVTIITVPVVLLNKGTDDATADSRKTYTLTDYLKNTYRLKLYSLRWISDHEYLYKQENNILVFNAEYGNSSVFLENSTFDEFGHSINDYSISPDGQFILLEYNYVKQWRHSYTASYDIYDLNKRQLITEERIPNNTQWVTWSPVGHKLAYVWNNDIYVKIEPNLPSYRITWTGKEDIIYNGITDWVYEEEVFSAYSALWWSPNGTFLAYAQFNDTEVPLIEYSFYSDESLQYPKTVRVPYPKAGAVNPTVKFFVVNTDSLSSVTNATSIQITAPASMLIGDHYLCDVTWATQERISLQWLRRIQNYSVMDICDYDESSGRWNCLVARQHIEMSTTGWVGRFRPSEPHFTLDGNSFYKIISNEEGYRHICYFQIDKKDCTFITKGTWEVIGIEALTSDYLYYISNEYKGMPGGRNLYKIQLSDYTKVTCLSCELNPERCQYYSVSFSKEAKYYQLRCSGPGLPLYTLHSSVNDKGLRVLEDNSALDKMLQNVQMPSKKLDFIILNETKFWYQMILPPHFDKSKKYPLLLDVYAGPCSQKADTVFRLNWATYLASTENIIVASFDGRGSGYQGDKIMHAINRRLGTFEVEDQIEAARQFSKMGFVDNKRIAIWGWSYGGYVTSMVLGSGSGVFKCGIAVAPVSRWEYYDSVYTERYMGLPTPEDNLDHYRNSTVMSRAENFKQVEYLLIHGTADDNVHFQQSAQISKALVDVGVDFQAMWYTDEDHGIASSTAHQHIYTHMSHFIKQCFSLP

SMILES	pEC50 (glucagon receptor [1])	pEC50 (glucagon receptor [2])	further results
CC(C)C[C@H](NC(=O)[C@H](Cc1ccc(O)cc1)NC(=O)[C@H](CCCCN)NC(=O)[C@H](CO)NC(=O)[C@H](Cc1ccc(O)cc1)NC(=O)[C@H](CC(=O)O)NC(=O)[C@H](CO)NC(=O)[C@@H](NC(=O)[C@H](Cc1ccccc1)NC(=O)[C@@H](NC(=O)CNC(=O)[C@H](CCC(N)=O)NC(=O)[C@H](CO)NC(=O)[C@@H](N)Cc1c[nH]cn1)[C@@H](C)O)[C@@H](C)O)C(=O)N[C@@H](CC(=O)O)C(=O)N[C@@H](CO)C(=O)N[C@@H](CCCCN)C(=O)N[C@@H](CCCCN)C(=O)N[C@@H](C)C(=O)N[C@@H](CCC(N)=O)C(=O)N[C@@H](CCC(=O)O)C(=O)N[C@@H](Cc1ccccc1)C(=O)N[C@H](C(=O)N[C@@H](CCCCNC(=O)COCCOCCNC(=O)COCCOCCNC(=O)CC[C@H](NC(=O)CCCCCCCCCCCCCCCCC(=O)O)C(=O)O)C(=O)N[C@@H](Cc1c[nH]c2ccccc12)C(=O)N[C@@H](CC(C)C)C(=O)N[C@@H](CC(C)C)C(=O)N[C@@H](CC(N)=O)C(=O)N[C@H](C(=O)O)[C@@H](C)O)C(C)C [Example 3] (H-HSQGTFTSDYSKYLDSKKAQEFVK([AEEA-AEEA-γGlu-C18 diacid])WLLNT-OH)	10.72		half-life at 10 μM (DPP-IV): 4.33 h; half-life (in vivo; iv, 15 nmol/kg): ~8.6 h; half-life (in vivo; sc, 30 nmol/kg): ~9.4 h
CC(C)C[C@H](NC(=O)[C@H](Cc1ccc(O)cc1)NC(=O)[C@H](CCCNC(=N)N)NC(=O)[C@H](CO)NC(=O)[C@H](Cc1ccc(O)cc1)NC(=O)[C@H](CC(=O)O)NC(=O)[C@H](CO)NC(=O)[C@@H](NC(=O)[C@H](Cc1ccccc1)NC(=O)[C@@H](NC(=O)CNC(=O)[C@H](CCC(N)=O)NC(=O)[C@H](CO)NC(=O)[C@@H](N)Cc1c[nH]cn1)[C@@H](C)O)[C@@H](C)O)C(=O)N[C@@H](CC(=O)O)C(=O)N[C@@H](CO)C(=O)N[C@@H](CCCNC(=N)N)C(=O)N[C@@H](CCCNC(=N)N)C(=O)N[C@@H](C)C(=O)N[C@@H](CCC(N)=O)C(=O)N[C@@H](CC(=O)O)C(=O)N[C@@H](Cc1ccccc1)C(=O)N[C@H](C(=O)N[C@@H](CCCCNC(=O)COCCOCCNC(=O)COCCOCCNC(=O)CC[C@H](NC(=O)CCCCCCCCCCCCCCCCC(=O)O)C(=O)O)C(=O)N[C@@H](Cc1c[nH]c2ccccc12)C(=O)N[C@@H](CC(C)C)C(=O)N[C@@H](CC(C)C)C(=O)N[C@@H](CC(N)=O)C(=O)N[C@H](C(=O)O)[C@@H](C)O)C(C)C [Example 20] (H-HSQGTFTSDYSRYLDSRRAQDFVK([AEEA-AEEA-γGlu-C18 diacid])WLLNT-OH; N-terminus and C-terminus assumed)		9.96	
CC(C)C[C@H](NC(=O)[C@H](Cc1ccc(O)cc1)NC(=O)[C@H](CCCCN)NC(=O)[C@H](CO)NC(=O)[C@H](Cc1ccc(O)cc1)NC(=O)[C@H](CC(=O)O)NC(=O)[C@H](CO)NC(=O)[C@@H](NC(=O)[C@H](Cc1ccccc1)NC(=O)[C@@H](NC(=O)CNC(=O)[C@H](CCC(N)=O)NC(=O)[C@H](CO)NC(=O)[C@@H](N)Cc1c[nH]cn1)[C@@H](C)O)[C@@H](C)O)C(=O)N[C@@H](CC(=O)O)C(=O)N[C@@H](CO)C(=O)N[C@@H](CCCNC(=N)N)C(=O)N[C@@H](CCCNC(=N)N)C(=O)N[C@@H](C)C(=O)N[C@@H](CCC(N)=O)C(=O)N[C@@H](CCC(=O)O)C(=O)N[C@@H](Cc1ccccc1)C(=O)N[C@H](C(=O)N[C@@H](CCCCNC(=O)COCCOCCNC(=O)COCCOCCNC(=O)CC[C@H](NC(=O)CCCCCCCCCCCCCCCCC(=O)O)C(=O)O)C(=O)N[C@@H](Cc1c[nH]c2ccccc12)C(=O)N[C@@H](CC(C)C)C(=O)N[C@@H](CC(C)C)C(=O)N[C@@H](CC(N)=O)C(=O)N[C@H](C(=O)O)[C@@H](C)O)C(C)C [Example 21]		10.68	

Now from value to compound, other results behind:

pEC50 (glucagon receptor [1])	pEC50 (glucagon receptor [2])	SMILES	further results
10.03		CC(C)C[C@H](NC(=O)[C@H](Cc1ccc(O)cc1)NC(=O)[C@H](CCCCN)NC(=O)[C@H](CO)NC(=O)[C@H](Cc1ccc(O)cc1)NC(=O)[C@H](CC(=O)O)NC(=O)[C@H](CO)NC(=O)[C@@H](NC(=O)[C@H](Cc1ccccc1)NC(=O)[C@@H](NC(=O)CNC(=O)[C@H](CCC(N)=O)NC(=O)[C@H](CO)NC(=O)[C@@H](N)Cc1c[nH]cn1)[C@@H](C)O)[C@@H](C)O)C(=O)N[C@@H](CC(=O)O)C(=O)N[C@@H](CO)C(=O)N[C@@H](CCCNC(=N)N)C(=O)N[C@@H](CCCNC(=N)N)C(=O)N[C@@H](C)C(=O)N[C@@H](CCC(N)=O)C(=O)N[C@@H](CC(=O)O)C(=O)N[C@@H](Cc1ccccc1)C(=O)N[C@H](C(=O)N[C@@H](CCCCNC(=O)CC[C@H](NC(=O)CC[C@H](NC(=O)CC[C@H](NC(=O)CCCCCCCCCCCCCCCCC(=O)O)C(=O)O)C(=O)O)C(=O)O)C(=O)N[C@@H](Cc1c[nH]c2ccccc12)C(=O)N[C@@H](CC(C)C)C(=O)N[C@@H](CC(C)C)C(=O)N[C@@H](CO)C(=O)N[C@H](C(=O)O)[C@@H](C)O)C(C)C [Example 71, N^ε24-[(4S)-4-carboxy-4-[[(4S)-4-carboxy-4-[[(4S)-4-carboxy-4-(17-carboxyheptadecanoylamino)butanoyl]amino]butanoyl]amino]butanoyl]-[Lys^24,Leu^27,Ser^28]-Glucagon]	Th T assay [Lag time] [3]: 45 h
9.81		CC(C)C[C@H](NC(=O)[C@H](Cc1ccc(O)cc1)NC(=O)[C@H](CCCCN)NC(=O)[C@H](CO)NC(=O)[C@H](Cc1ccc(O)cc1)NC(=O)[C@H](CC(=O)O)NC(=O)[C@H](CO)NC(=O)[C@@H](NC(=O)[C@H](Cc1ccccc1)NC(=O)[C@@H](NC(=O)CNC(=O)[C@H](CCC(N)=O)NC(=O)[C@H](CO)NC(=O)[C@@H](N)Cc1c[nH]cn1)[C@@H](C)O)[C@@H](C)O)C(=O)N[C@@H](CC(=O)O)C(=O)N[C@@H](CO)C(=O)N[C@@H](CCCNC(=N)N)C(=O)N[C@@H](CCCNC(=N)N)C(=O)N[C@@H](C)C(=O)N[C@@H](CCC(N)=O)C(=O)N[C@@H](CC(=O)O)C(=O)N[C@@H](Cc1ccccc1)C(=O)N[C@H](C(=O)N[C@@H](CCCCNC(=O)CC[C@H](NC(=O)CC[C@H](NC(=O)COCCOCCNC(=O)COCCOCCNC(=O)CC[C@H](NC(=O)CCCCCCCCCCCCCCCCC(=O)O)C(=O)O)C(=O)O)C(=O)O)C(=O)N[C@@H](Cc1c[nH]c2ccccc12)C(=O)N[C@@H](CC(C)C)C(=O)N[C@@H](CC(C)C)C(=O)N[C@@H](CC(N)=O)C(=O)N1CCC[C@H]1C(=O)O)C(C)C [Example 81, N^ε24-[(4S)-4-carboxy-4-[[(4S)-4-carboxy-4-[[2-[2-[2-[[2-[2-[2-[[(4S)-4-carboxy-4-(17-carboxyheptadecanoylamino)butanoyl]amino]ethoxy]ethoxy]acetyl]amino]ethoxy]ethoxy]acetyl]amino]butanoyl]amino]butanoyl]-[Lys^24,Leu^27,Pro^29]-Glucagon]	
